Patent US20050048011A1, “Skin preparation comprising a tocopherol derivative for external application” (priority 2001, published 2005)

Experiments:
[1] = tested on: three dimensional model of human skin tissue (TESTSKIN LSD-d, Toyobo K. K.); assay: Permeability of three dimensional model of human skin tissue and tocopherol conversion; settings: for level of tocopherol in model skin: 1% solution, 6 hours
Protocol: 40 μL of a 1% solution of the below test substances 1) to 7) dissolved or dispersed in Dulbecco's PBS (−) were applied onto the tissue surface of a three dimensional model of human skin tissue (TESTSKIN™ LSD-d, Toyobo K. K.) and were cultured at 37° C. under 5% CO2 for 6 hours. After this, the solutions of the test substances were removed by aspiration and sampling was carried out.
The sample model skin was washed with Dulbecco's PBS (−) and the tissue surfaces onto which the test substances were applied were punched out with a φ 6 mm punch, and were homogenated in a HEPES buffer solution (pH 7.2), and quantitative analysis of the α-tocopherol and γ-tocopherol were carried out by high speed liquid chromatography. Quantitative analysis of the amount of protein in the model skin was carried out according to the Lowry method. • 1) α-tocopherol dimethylglycine ester hydrochloride • 2) α-tocopherol sarcosine ester hydrochloride • 3) αa-tocopherol glycine ester • 4) γ-tocopherol dimethylglycine ester hydrochloride • 5) γ-tocopherol sarcosine ester hydrochloride • 6) γ-tocopherol glycine ester • 7) tocopherol acetate

[2] = tested on: keratinocytes of normal human epidermis; assay: Conversion to γ-tocopherol in keratinocyte of human epidermis (cell spall solution); settings: 37° C. for 2 hours; for increase of the γ-tocopherol amount in cell spall solution: 1 mM; for amount of γ-tocopherol liberated in the reaction solution: final concentration 1 mM, not added: lower than detection limit
Protocol: The cells were harvested and spalled by freeze-thawing method. To this cell spall solution, 1), 2) or 3) was added to have a final concentration of 1 mM. The resulting solution was kept at 37° C. for 2 hours and then the amount of γ-tocopherol liberated in the reaction solution was measured.

[3] = tested on: skin removed from the back of a hairless mouse; settings: 4 hours at 37° C.; for amount of γ-tocopherol in the skin: Dulbecco's MEM containing 0.50 of test substance on epidermis side, not added: lower than detection limit; for increase of the γ-tocopherol amount in treated skin: hairless mouse skin
Protocol: Then, the amount of γ-tocopherol in the skin was measured.

[4] = tested on: skin removed from the back of a hairless mouse; assay: Evaluation of skin penetrability (α-tocopherol amount in skin); settings: 4 hours at 37° C.; for amount of α-tocopherol in the skin: Dulbecco's MEM containing 0.50 of test substance on epidermis side, not added: 10 nmol/g of skin; for increase of the α-tocopherol amount in treated skin: hairless mouse skin
[5] = tested on: keratinocytes of normal human epidermis; assay: Conversion to α-tocopherol in keratinocyte of human epidermis (cell spall solution); settings: 37° C. for 2 hours; for increase of the α-tocopherol amount in cell spall solution: 1 mM; for amount of α-tocopherol liberated in the reaction solution: final concentration 1 mM, not added: lower than detection limit
Protocol: The cells were harvested and spalled by freeze-thawing method. To this cell spall solution, 1), 2), 3) or 4) was added to have a final concentration of 1 mM. The resulting solution was kept at 37° C. for 2 hours and then the amount of α-tocopherol liberated in the reaction solution was measured.

[6] = 40 μL of 1% solution in Dulbecco's PBS (−) on tissue surface, 37° C., 5% CO2, 6 hours

## CNCC(=O)Oc1cc2c(c(C)c1C)OC(C)(CCCC(C)CCCC(C)CCCC(C)C)CC2.Cl (stereo not drawn) [γ-Tocopherol sarcosine ester hydrochloride]
[1]
  level of tocopherol in model skin: significantly increased
[1]; [6]
  the amount of γ-tocopherol in model skin: 5.5 nmol/mg protein
[2]
  increase of the γ-tocopherol amount in cell spall solution: significant increase
  amount of γ-tocopherol liberated in the reaction solution: 30.3 nmol/ml of cell suspension
[3]
  amount of γ-tocopherol in the skin: 2.1 nmol/g of skin
  increase of the γ-tocopherol amount in treated skin: significant increase

## CC(=O)Oc1c(C)c(C)c2c(c1C)CCC(C)(CCC[C@H](C)CCC[C@H](C)CCCC(C)C)O2 (stereo partly drawn) [Tocopherol acetate, reference compound]
[1]; human, 6 h, 1 %
  the amount of α-tocopherol in model skin: 1.0 nmol/mg protein

## Cc1c(OC(=O)CN(C)C)cc2c(c1C)OC(C)(CCCC(C)CCCC(C)CCCC(C)C)CC2.Cl (stereo not drawn) [γ-Tocopherol dimethylglycine ester hydrochloride]
[1]
  level of tocopherol in model skin: significantly increased
[1]; [6]
  the amount of γ-tocopherol in model skin: 4.7 nmol/mg protein
[2]
  increase of the γ-tocopherol amount in cell spall solution: significant increase
  amount of γ-tocopherol liberated in the reaction solution: 28.1 nmol/ml of cell suspension
[3]
  amount of γ-tocopherol in the skin: 20 nmol/g of skin
  increase of the γ-tocopherol amount in treated skin: significant increase

## CNCC(=O)Oc1c(C)c(C)c2c(c1C)CCC(C)(CCCC(C)CCCC(C)CCCC(C)C)O2.Cl (stereo not drawn) [α-Tocopherol sarcosine ester hydrochloride]
[1]
  level of tocopherol in model skin: significantly increased
[1]; [6]
  the amount of α-tocopherol in model skin: 3.9 nmol/mg protein
[4]
  amount of α-tocopherol in the skin: 20 nmol/g of skin
  increase of the α-tocopherol amount in treated skin: significant increase
[5]
  increase of the α-tocopherol amount in cell spall solution: significant increase
  amount of α-tocopherol liberated in the reaction solution: 26.9 nmol/ml of cell suspension

## Cc1c(OC(=O)CN)cc2c(c1C)OC(C)(CCCC(C)CCCC(C)CCCC(C)C)CC2 (stereo not drawn) [γ-tocopherol glycine ester, reference compound]
[1]; [6]
  the amount of γ-tocopherol in model skin: 1.5 nmol/mg protein

## Cc1c(C)c2c(c(C)c1OC(=O)CN(C)C)CCC(C)(CCCC(C)CCCC(C)CCCC(C)C)O2.Cl (stereo not drawn) [α-Tocopherol dimethylglycine ester hydrochloride]
[1]
  level of tocopherol in model skin: significantly increased
[1]; [6]
  the amount of α-tocopherol in model skin: 2.8 nmol/mg protein
[4]
  amount of α-tocopherol in the skin: 17 nmol/g of skin
  increase of the α-tocopherol amount in treated skin: significant increase
[5]
  increase of the α-tocopherol amount in cell spall solution: significant increase
  amount of α-tocopherol liberated in the reaction solution: 6.9 nmol/ml of cell suspension

## Cc1c(C)c2c(c(C)c1OC(=O)CN)CCC(C)(CCCC(C)CCCC(C)CCCC(C)C)O2 (stereo not drawn) [αa-tocopherol glycine ester, reference compound]
[1]; [6]
  the amount of α-tocopherol in model skin: 1.2 nmol/mg protein
